From ChEMBL document CHEMBL3872220, “Amphiphilic xanthones as a potent chemical entity of anti-mycobacterial agents with membrane-targeting properties” (Eur J Med Chem, 2016)
≈ marks a conversion by molar mass, not a printed value.

How the values were obtained:
[1] = test system: Mycolicibacterium smegmatis; assay: Antimycobacterial activity against Mycobacterium smegmatis MC2 155 assessed as ATP leakage by measuring intracellular ATP at MIC measured at 24 hrs post dose by luciferase reporter gene assay; type: functional, str. MC2 155
[2] = test system: Mycolicibacterium smegmatis; assay: Antimycobacterial activity against Mycobacterium smegmatis MC2 155 assessed as ATP leakage by measuring intracellular ATP at 2 times MIC measured immediatey after addition of compounds by luciferase reporter gene assay; type: functional, str. MC2 155
[3] = test system: Mycolicibacterium smegmatis; assay: Antimycobacterial activity against Mycobacterium smegmatis MC2 155 assessed as ATP leakage by measuring intracellular ATP at 2 times MIC measured at 9 hrs post dose by luciferase reporter gene assay; type: functional, str. MC2 155
CYP2C19 = CYP2C19 (Homo sapiens, UniProt P33261); assay: Inhibition of CYP2C19 in human liver microsomes at 10 uM using omeprazole as substrate preincubated for 5 min followed by NADPH addition measured after 10 mins by LC-MS/MS method relative to control; type: ADME; details: probe omeprazole
Sequence of CYP2C19 (P33261 whole entry): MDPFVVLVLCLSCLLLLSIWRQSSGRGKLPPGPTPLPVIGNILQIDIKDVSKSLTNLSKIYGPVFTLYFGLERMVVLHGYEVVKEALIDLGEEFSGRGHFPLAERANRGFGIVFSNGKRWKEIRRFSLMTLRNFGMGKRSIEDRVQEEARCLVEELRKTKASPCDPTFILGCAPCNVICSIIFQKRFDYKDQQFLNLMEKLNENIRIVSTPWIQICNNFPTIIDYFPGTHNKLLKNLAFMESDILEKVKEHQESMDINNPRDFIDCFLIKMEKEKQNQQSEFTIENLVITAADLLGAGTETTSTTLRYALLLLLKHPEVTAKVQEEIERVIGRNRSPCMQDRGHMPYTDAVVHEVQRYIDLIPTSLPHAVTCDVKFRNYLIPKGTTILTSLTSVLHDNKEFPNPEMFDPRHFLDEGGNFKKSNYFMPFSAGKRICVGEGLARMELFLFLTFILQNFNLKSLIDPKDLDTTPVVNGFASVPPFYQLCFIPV

[4] = test system: Mycobacterium tuberculosis; assay: Antimycobacterial activity against Mycobacterium tuberculosis clinical isolate 01;087 assessed as reduction in 2 log10 bacterial colonies measured after 14 to 21 days by agar dilution method; type: functional
[5] = test system: Mycolicibacterium smegmatis; assay: Antimycobacterial activity against Mycobacterium smegmatis MC2 155 assessed as ATP leakage by measuring extracellular ATP at 2 times MIC measured at 1 hr of post dose by luciferase reporter gene assay; type: functional, str. MC2 155
[6] = test system: Mycobacterium tuberculosis; assay: Antimycobacterial activity against Mycobacterium tuberculosis clinical isolate 01;111 assessed as reduction in 2 log10 bacterial colonies measured after 14 to 21 days by agar dilution method; type: functional
[7] = test system: Mycolicibacterium smegmatis; assay: Antimycobacterial activity against Mycobacterium smegmatis MC2 155 assessed as ATP leakage by measuring intracellular ATP at 4 times MIC measured at 9 hrs post dose by luciferase reporter gene assay; type: functional, str. MC2 155
[8] = test system: Mycolicibacterium smegmatis; assay: Antimycobacterial activity against Mycobacterium smegmatis MC2 155 assessed as ATP leakage by measuring extracellular ATP at 2 times MIC measured at 24 hrs post dose by luciferase reporter gene assay; type: functional, str. MC2 155
[9] = test system: Mycolicibacterium smegmatis; assay: Antimycobacterial activity against Mycobacterium smegmatis MC2 155 assessed as ATP leakage by measuring intracellular ATP at 0.5 times MIC measured at 9 hrs post dose by luciferase reporter gene assay; type: functional, str. MC2 155
[10] = test system: Mycolicibacterium smegmatis; assay: Antimycobacterial activity against Mycobacterium smegmatis MC2 155 assessed as inhibition of respiratory ATP synthesis by measuring ATP level at 2 times MIC measured after 1 hr by luciferase reporter gene assay (reference value: 90.6%); type: functional, str. MC2 155; set-up: scale not given: the % may be the effect or the level left
[11] = test system: Mycolicibacterium smegmatis; assay: Antimycobacterial activity against Mycobacterium smegmatis MC2 155 assessed as ATP leakage by measuring extracellular ATP at 4 times MIC measured at 24 hrs post dose by luciferase reporter gene assay; type: functional, str. MC2 155
[12] = test system: Mycolicibacterium smegmatis; assay: Antimycobacterial activity against Mycobacterium smegmatis MC2 155 assessed as ATP leakage by measuring intracellular ATP at 0.5 times MIC measured at 1 hr of post dose by luciferase reporter gene assay; type: functional, str. MC2 155
[13] = test system: Mycobacterium tuberculosis; assay: Antimycobacterial activity against Mycobacterium tuberculosis clinical isolate 01;057 assessed as reduction in 2 log10 bacterial colonies measured after 14 to 21 days by agar dilution method; type: functional
[14] = test system: Mycolicibacterium smegmatis; assay: Antimycobacterial activity against Mycobacterium smegmatis MC2 155 assessed as ATP leakage by measuring extracellular ATP at 0.5 times MIC measured immediatey after addition of compounds by luciferase reporter gene assay by luciferase reporter gene assay by luciferase reporter gene assay; type: functional, str. MC2 155
[15] = test system: Mycolicibacterium smegmatis; assay: Antimycobacterial activity against Mycobacterium smegmatis MC2 155 assessed as ATP leakage by measuring intracellular ATP at MIC measured at 3 hrs post dose by luciferase reporter gene assay; type: functional, str. MC2 155
[16] = test system: Mycobacterium tuberculosis; assay: Antimycobacterial activity against Mycobacterium tuberculosis clinical isolate 01;001 assessed as reduction in 2 log10 bacterial colonies measured after 14 to 21 days by agar dilution method; type: functional
[17] = test system: Mycolicibacterium smegmatis; assay: Antimycobacterial activity against Mycobacterium smegmatis MC2 155 assessed as ATP leakage by measuring extracellular ATP at MIC measured at 9 hrs post dose by luciferase reporter gene assay; type: functional, str. MC2 155
[18] = test system: Mycolicibacterium smegmatis; assay: Antimycobacterial activity against Mycobacterium smegmatis MC2 155 assessed as ATP leakage by measuring intracellular ATP at 0.5 times MIC measured at 24 hrs post dose by luciferase reporter gene assay; type: functional, str. MC2 155
[19] = test system: Mycolicibacterium smegmatis; assay: Antimycobacterial activity against Mycobacterium smegmatis MC2 155 assessed as inhibition of respiratory ATP synthesis by measuring ATP level at 2 times MIC measured after 6 hrs by luciferase reporter gene assay (reference value: 152%); type: functional, str. MC2 155; set-up: scale not given: the % may be the effect or the level left
[20] = test system: Mycolicibacterium smegmatis; assay: Antimycobacterial activity against Mycobacterium smegmatis MC2 155 assessed as ATP leakage by measuring extracellular ATP at 0.5 times MIC measured at 24 hrs post dose by luciferase reporter gene assay; type: functional, str. MC2 155
[21] = test system: Mycolicibacterium smegmatis; assay: Antimycobacterial activity against Mycobacterium smegmatis MC2 155 assessed as ATP leakage by measuring intracellular ATP at 2 times MIC measured at 6 hrs post dose by luciferase reporter gene assay; type: functional, str. MC2 155
[22] = test system: Mycolicibacterium smegmatis; assay: Antimycobacterial activity against Mycobacterium smegmatis MC2 155 assessed as ATP leakage by measuring intracellular ATP at MIC measured at 9 hrs post dose by luciferase reporter gene assay; type: functional, str. MC2 155
[23] = test system: Mycolicibacterium smegmatis; assay: Antimycobacterial activity against Mycobacterium smegmatis MC2 155 assessed as ATP leakage by measuring extracellular ATP at 0.5 times MIC measured at 1 hr of post dose by luciferase reporter gene assay; type: functional, str. MC2 155
[24] = test system: Mycolicibacterium smegmatis; assay: Antimycobacterial activity against Mycobacterium smegmatis MC2 155 assessed as ATP leakage by measuring extracellular ATP at MIC measured immediatey after addition of compounds by luciferase reporter gene assay; type: functional, str. MC2 155
[25] = test system: Mycolicibacterium smegmatis; assay: Antimycobacterial activity against Mycobacterium smegmatis MC2 155 assessed as ATP leakage by measuring intracellular ATP at 4 times MIC measured at 3 hrs post dose by luciferase reporter gene assay; type: functional, str. MC2 155
[26] = test system: Mycolicibacterium smegmatis; assay: Antimycobacterial activity against Mycobacterium smegmatis MC2 155 assessed as ATP leakage by measuring intracellular ATP at 0.5 times MIC measured immediatey after addition of compounds by luciferase reporter gene assay; type: functional, str. MC2 155
[27] = Hemolytic activity against New Zealand white rabbit RBC assessed as hemoglobin release measured after 1 hr; type: ADME, cell-based, Oryctolagus cuniculus, Erythrocyte; details: red blood cells
[28] = Half life in rat liver microsomes at 1 uM preincubated for 5 mins followed by NADPH addition measured by LC-MS/MS method; type: ADME
[29] = test system: Mycobacterium tuberculosis; assay: Antimycobacterial activity against Mycobacterium tuberculosis clinical isolate 01;064 assessed as reduction in 2 log10 bacterial colonies measured after 14 to 21 days by agar dilution method; type: functional
CYP3A4 = CYP3A4 (Homo sapiens, UniProt P08684); assay: Inhibition of CYP3A4 in human liver microsomes at 10 uM using midazolam as substrate preincubated for 5 min followed by NADPH addition measured after 10 mins by LC-MS/MS method relative to control; type: ADME; details: probe midazolam
Sequence of CYP3A4 (P08684 whole entry): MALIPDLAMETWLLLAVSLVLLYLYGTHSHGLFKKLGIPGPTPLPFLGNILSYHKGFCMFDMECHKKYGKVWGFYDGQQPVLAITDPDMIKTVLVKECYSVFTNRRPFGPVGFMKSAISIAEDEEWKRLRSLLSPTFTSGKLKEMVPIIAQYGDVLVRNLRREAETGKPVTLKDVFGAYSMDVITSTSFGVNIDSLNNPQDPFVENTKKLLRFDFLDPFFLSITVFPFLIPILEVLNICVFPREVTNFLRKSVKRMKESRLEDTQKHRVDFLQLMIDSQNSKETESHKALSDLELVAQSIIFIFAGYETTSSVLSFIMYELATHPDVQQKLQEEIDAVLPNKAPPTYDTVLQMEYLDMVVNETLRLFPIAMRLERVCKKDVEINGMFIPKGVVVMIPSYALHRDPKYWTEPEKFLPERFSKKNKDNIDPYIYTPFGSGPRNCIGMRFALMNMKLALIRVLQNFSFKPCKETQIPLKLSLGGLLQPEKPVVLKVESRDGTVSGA

[30] = test system: Mycolicibacterium smegmatis; assay: Induction of membrane integrity impairment in Mycobacterium smegmatis MC2 155 at 4 times MIC measured after 24 hrs by SYTO-9/propium iodide staining based Baclight assay relative to control; type: functional, str. MC2 155
[31] = test system: Mycolicibacterium smegmatis; assay: Induction of membrane integrity impairment in Mycobacterium smegmatis MC2 155 at 2 to 4 times MIC measured after 3 hrs by SYTO-9/propium iodide staining based Baclight assay relative to control; type: functional, str. MC2 155
[32] = test system: Mycolicibacterium smegmatis; assay: Induction of impaired membrane integrity in Mycobacterium smegmatis MC2 155 assessed as reduction in membrane integrity at 0.5 times MIC by SYTO-9/propium iodide stain based Baclight assay relative to control; type: functional, str. MC2 155; set-up: scale not given: the % may be the effect or the level left

Row | Compound | Activity [1] [%] | Activity [2] [%] | Activity [3] [%] | inhibition at 10 min, 10 µM (CYP2C19) [%] | Activity [5] [%] | Activity [7] [%] | Activity [8] [%] | Activity [9] [%] | Activity [10] [%] | Activity [11] [%] | Activity [12] [%] | Activity [14] [%] | Activity [15] [%] | Activity [17] [%] | Activity [18] [%] | Activity [19] [%] | Activity [20] [%] | Activity [21] [%] | Activity [22] [%] | Activity [23] [%] | also measured
1 | COc1c(OCCCCN2CCOCC2)cc2oc3cc(OCCCCN4CCOCC4)c(CC=C(C)C)c(O)c3c(=O)c2c1CC=C(C)C | 11.3 | 97 | 15.6 | 17 | 30.4 | 7.9 | 94.7 | 73.5 | 50.2 | 95.5 | 97.8 | 0 | 55.3 | 58.6 | 52.5 | 18.9 | 47.5 | 23.3 | 41.4 | 2.2 | MIC [4]: 8 mg/L (≈ 11.5 µM); MIC [6]: 4 mg/L (≈ 5.77 µM); MIC [13]: 4 mg/L (≈ 5.77 µM); MIC [16]: 4 mg/L (≈ 5.77 µM); Activity [24]: 2.3%; Activity [25]: 44.7%; Activity [26]: 100%; HC50 at 1 h [27]: > 289 µM; half-life at 1 µM [28]: > 30 min; MIC [29]: 4 mg/L (≈ 5.77 µM); inhibition at 10 min, 10 µM (CYP3A4): 32%
2 | CCCN(CCC)CCCCOc1cc2oc3cc(OCCCCN(CCC)CCC)c(OC)c(CC=C(C)C)c3c(=O)c2c(O)c1CC=C(C)C | 11.9 | 96 | 3.9 | 19.2 | 97.2 | 15.7 | 95.3 | 66.5 | 5.9 | 88 | 75.3 | 0 | 8.2 | 89.4 | 46.4 | 3.9 | 53.6 | 3.9 | 10.6 | 24.7 | Activity [30]: 76.9%; Activity [31]: >80%; Activity [24]: 2.3%; Activity [25]: 8.9%; Activity [32]: <15%; Activity [26]: 100%; HC50 at 1 h [27]: > 277 µM; half-life at 1 µM [28]: > 30 min; inhibition at 10 min, 10 µM (CYP3A4): 0%
3 | CCN(CC)CCCCOc1cc2oc3cc(OCCCCN(CC)CC)c(OC)c(CC=C(C)C)c3c(=O)c2c(O)c1CC=C(C)C | 55.6 | 98.7 | 3.4 | 3 | 95.6 | 2.7 | 86.7 | 76.8 | 5.8 | 97.3 | 93.2 | 0 | 12 | 82.4 | 33.3 | 26.8 | 66.7 | 3.2 | 17.6 | 6.8 | MIC [4]: 8 mg/L (≈ 12 µM); MIC [6]: 4 mg/L (≈ 6.02 µM); MIC [13]: 4 mg/L (≈ 6.02 µM); Activity [30]: 62.5%; MIC [16]: 4 mg/L (≈ 6.02 µM); Activity [31]: >80%; Activity [24]: 0.8%; Activity [25]: 2.5%; Activity [32]: <15%; Activity [26]: 100%; half-life at 1 µM [28]: > 30 min; MIC [29]: 8 mg/L (≈ 12 µM); inhibition at 10 min, 10 µM (CYP3A4): 12%
